{
  "source": "paper PMC10313368",
  "about": "(The Journal of Clinical Investigation, 2023)",
  "key": {"[1]": {"test_system": "MIO-M1 cells", "experiment": "mRNA angiogenesis array (TaqMan Array qPCR) in MIO-M1 cells", "format": "cell-based, human", "experimental": "Angiogenesis array. Total RNA was isolated from MIO-MI cells (8 hours) and HUVECs (16 […]\ncDNA was prepared with QuantiTect® Reverse Transcription Kit (Qiagen, Cat# 205311). RT-qPCR assay was performed with pre-configured TaqMan Array 96-Well FAST Plate for human angiogenic gene expression (Applied Biosystems, Inc) following the manufacture’s protocol. Each plate contains pre-defined genes including 18S, GAPDH and HPRT1 endogenous controls.\nTaqMan Array plates were prepared by loading on each well 5 μl of cDNA sample (30 ng) with nuclease-free water and 5 μl of TaqMan™ Fast Advanced Master Mix (Applied Biosystem, Cat# […]\n4444554). The reaction was performed using the QuantStudio™ 3 Flex Real‐Time PCR System as follows: 2 minutes at 50°C (stage 1); 10 minutes at 95°C (stage 2); 15 seconds at 95°C and 1 minutes at 60°C for 40 cycles (stage 3). The data were analyzed by using HPRT1 as endogenous […]\nThe clustering heatmaps were produced with “pheatmap” library in R with scale = row and clustering method = complete.\nHUVEC cells, Euclidean distance was used to quantify the difference in qPCR screening. The Euclidean distance was calculated using “dist” function from R’s default stat library that measures"}, "[2]": {"test_system": "BL/6 mice", "experiment": "Fundus photos and fluorescein angiography after systemic (i.p.) administration", "format": "in vivo, mouse", "details": "adult mice, 1 month following 5 consecutive i.p. injections of 40 or 80 mg/kg", "experimental": "protocol, the sections were rinsed three times with PBS for 2 minutes. Images were captured at high magnification (20X) with Zeiss fluorescent microscope.\nFlash scotopic ERGs. All procedures were performed under dim red light. Mice were dark adapted overnight, anesthetized with ketamine (50 mg/kg) and xylazine (5mg/kg) and pupils were dilated with a topical drop of tropicamide (1%). Scotopic ERG responses were measured using the Celeris ERG stimulator (Diagnosys, Lowell, MA) at flash intensities of 0.025, 0.25, 2.5, 7.96, and 79.06 cd/s/m2. ERGs were measured simultaneously from both eyes with a ground electrode placed into the forehead between the eyes and a reference electrode into the hip.\nFluorescein angiography in mice. […]\nvascular permeability, experimental animals were treated with 5 consecutive daily IP injections […]\nOn day 30, mice were anesthetized using intramuscular injection with ketamine (50 mg/kg) and xylazine (5mg/kg). […] Fluorescein leakage manifests as indistinct vascular borders progressing to diffusely hazy fluorescence. Fluorescein leakage was compared between different groups by quantifying the fluorescence intensities collected after 1-, 2-, and 3-minutes following fluorescein injection using the ImageJ software."}, "[3]": {"test_system": "HIF-regulated vasoactive mediators", "experiment": "mRNA expression of HIF-regulated vasoactive mediators in retina of STZ-induced diabetic mice (qPCR)", "format": "in vivo, mouse", "details": "STZ mice, replicates; for Angptl4 mRNA / Vegfa mRNA: S Figure 3B; for Angpt2 mRNA / Ptprb mRNA: S Figure 3C", "experimental": "Reverse transcription and quantitative real-time PCR. Total RNA was isolated from cultured cells or retinas with PureLinkTM RNA Mini Kit (Invitrogen #12183025), and cDNA was prepared with MuLV Reverse Transcriptase (Applied Biosystems). Quantitative real-time PCR was performed with Power SYBR Green PCR Master Mix (Applied Biosystems) and MyiQ Real-Time PCR Detection System (Bio-Rad). Normalization was done using cyclophilin A for mouse tissue and human cell lines. Primers are listed in Supplemental Table 2. […]\nSTZ-induced diabetes mouse model. 8-to-10 week-old male mice received an IP injection of STZ at 40 mg/kg of body weight in 0.1M of citrate buffer (pH 4.5) for 5 consecutive days. Normal chow and 10% sucrose water were provided during this period. 10% sucrose was discontinued and replaced with regular water on experimental day 6. Blood glucose was measured on experimental day 28 after 16 hours fasting and mice with blood glucose level > 250 mg/dL were considered […]\nIntraperitoneal (IP) injections. […]"}, "[4]": {"details": "MIO-M1, hypoxia+32-134D, 8 hours, Figure 7G"}},
  "note": "Several values for one entry are separate records, joined by “and”; a condition that tells them apart may be missing. Equal values may be shown once.",
  "data": [
    {"smiles": "Brc1ccc2c(-c3csc(-c4c[nH]c5c(Br)cccc45)n3)c[nH]c2c1", "note": "[32-134D, 4-(6-bromo-1H-indol-3-yl)-2-(7-bromo-1H-indol-3-yl)thiazole]", "values": [
      {"measurement": "reduction in the Euclidean distance between control and hypoxic cell angiogenic gene expression", "setting": "[1]; MIO-M1, from 73 to 31", "value": 58, "unit": "%"},
      {"measurement": "mRNA transcripts of angiogenic genes versus cells cultured in hypoxia (in words)", "setting": "[1]; MIO-M1, hypoxia + 32-134D", "value": "substantially reduced"},
      {"measurement": "ANG,RNASE4, angiogenesis array expression (control = 1)", "setting": "[1]; [4]", "value": 2.068},
      {"measurement": "ANGPTL1, angiogenesis array expression (control = 1)", "setting": "[1]; [4]", "value": 0.8991},
      {"measurement": "ANGPTL4, angiogenesis array expression (control = 1)", "setting": "[1]; [4]", "value": 30.9206},
      {"measurement": "CDH5, angiogenesis array expression (control = 1)", "setting": "[1]; [4]", "value": 0.6144},
      {"measurement": "CEACAM1, angiogenesis array expression (control = 1)", "setting": "[1]; [4]", "value": 1.055},
      {"measurement": "COL15A1, angiogenesis array expression (control = 1)", "setting": "[1]; [4]", "value": 1.01},
      {"measurement": "CSF3, angiogenesis array expression (control = 1)", "setting": "[1]; [4]", "value": 0.9339},
      {"measurement": "FIGF, angiogenesis array expression (control = 1)", "setting": "[1]; [4]", "value": 1.127},
      {"measurement": "HGF, angiogenesis array expression (control = 1)", "setting": "[1]; [4]", "value": 0.5689},
      {"measurement": "IL8, angiogenesis array expression (control = 1)", "setting": "[1]; [4]", "value": 1.45},
      {"measurement": "TIMP2, angiogenesis array expression (control = 1)", "setting": "[1]; [4]", "value": 0.9298},
      {"measurement": "TIMP3, angiogenesis array expression (control = 1)", "setting": "[1]; [4]", "value": 0.7612},
      {"measurement": "TNMD, angiogenesis array expression (control = 1)", "setting": "[1]; [4]", "value": 0.5729},
      {"measurement": "TNNI1, angiogenesis array expression (control = 1)", "setting": "[1]; [4]", "value": 0.511},
      {"measurement": "VEGFA, angiogenesis array expression (control = 1)", "setting": "[1]; [4]", "value": 8.239},
      {"measurement": "fundus and fluorescein angiogram", "setting": "[2]", "value": "normal-appearing fundus without evidence of retinal vascular injury or leakage"},
      {"measurement": "Angptl4 mRNA", "setting": "[3]; 40mg/kg i.p., 40 mg/kg", "value": "0.6634 and 0.674 and 0.6653"},
      {"measurement": "Vegfa mRNA", "setting": "[3]; 40mg/kg i.p., 40 mg/kg", "value": "1.885 and 1.498 and 1.761"},
      {"measurement": "Angptl4 mRNA", "setting": "[3]; 80mg/kg i.p., 80 mg/kg", "value": "0.5186 and 0.5762 and 0.6276"},
      {"measurement": "Vegfa mRNA", "setting": "[3]; 80mg/kg i.p., 80 mg/kg", "value": "1.453 and 1.442 and 1.52"},
      {"measurement": "Angpt2 mRNA", "setting": "[3]; 40mg/kg i.p., 40 mg/kg", "value": "0.559 and 0.5248 and 0.5704"},
      {"measurement": "Ptprb mRNA", "setting": "[3]; 40mg/kg i.p., 40 mg/kg", "value": "0.7022 and 0.6022 and 0.6973"},
      {"measurement": "Angpt2 mRNA", "setting": "[3]; 80mg/kg i.p., 80 mg/kg", "value": "0.5647 and 0.5575 and 0.5047"},
      {"measurement": "Ptprb mRNA", "setting": "[3]; 80mg/kg i.p., 80 mg/kg", "value": "0.8502 and 0.8904 and 0.75"}
    ]}
  ]
}
